Results as given in patent US20100004267A1, “LIQUID PREPARATION” (ASUBIO PHARMA CO., LTD., priority 2006, published 2010).

Assay: Reduction in surface activity in SUN N8075 aqueous solution (Test example 7)
Type: physicochemical
Parameters: key to Appearance after shaking / Appearance after standing: A: Clear; B+: Almost clear; B: Much less insoluble matters than Control; Clearly less insoluble matter than Control; D: Comparable amount of insoluble matters with Control; E: More insoluble matters than Control; key to General judgment: A: Great effect; B+: Large effect; B: Effective; C: Effective but very small; D: Comparable to Control (No effect); E: Inferior to Control (clouded); key to Foaming property: A: Much less foaming than Control; B: Clearly less foaming than Control; Slightly less foaming than Control; D: Comparable to Control; E: More foaming than Control
Procedure: Into each test compound solution which was prepared in advance to achieve each adding concentration shown in the Table, SUN N8075 was added and dissolved so that the concentration thereof was 5 mg/mL, and the pH value was adjusted to 3 to 4 as appropriate by hydrochloric acid to prepare a sample solution.
Each 10 mL of sample solution was put into a 10-mL stoppered test tube, and shaken 30 strokes vertically by hand and allowed to stand upright, and under room diffused light, appearance of sample solution after shaking, foaming property (foaming quantity), defoaming time, post standing observation (after standing for 3 days or more) were evaluated.
As a control, an aqueous solution containing no test substance but containing 5 mg/mL of SUN N8075 was examined in a similar manner.

[1] = Control: 5 mg/mL SUN N8075 aqueous solution, no test substance

- Appearance after shaking (Captisol 10.00%): A
- Appearance after standing (Captisol 10.00%): A
- Defoaming time (Captisol 10.00%): A (In 20 minutes)
- Foaming property (Captisol 10.00%): A
- General judgment (Captisol 10.00%): A
- Appearance after shaking (Chlorobutanol 0.10%): D
- Appearance after standing (Chlorobutanol 0.10%): D
- Foaming property (Chlorobutanol 0.10%): C
- General judgment (Chlorobutanol 0.10%): D
- Appearance after shaking (Chlorobutanol 0.50%): B
- Appearance after standing (Chlorobutanol 0.50%): A
- Foaming property (Chlorobutanol 0.50%): B
- General judgment (Chlorobutanol 0.50%): B+
- Appearance after shaking (Chlorobutanol […]): C
- Appearance after standing (Chlorobutanol […]): A
- Foaming property (Chlorobutanol […]): C
- General judgment (Chlorobutanol […]): B
- Foaming property [1]: Very high foaming property in Control
- Appearance after shaking (Ethanol 1.00%): B
- Appearance after standing (Ethanol 1.00%): B
- Foaming property (Ethanol 1.00%): C
- General judgment (Ethanol 1.00%): B
- Appearance after shaking (Ethanol 5.00%): D
- Appearance after standing (Ethanol 5.00%): E
- Foaming property (Ethanol 5.00%): D
- General judgment (Ethanol 5.00%): D
- Appearance after shaking (Ethanol 10.00%): D
- Appearance after standing (Ethanol 10.00%): E
- Foaming property (Ethanol 10.00%): D
- General judgment (Ethanol 10.00%): D
- Appearance after shaking (Ethanol […]): B
- Appearance after standing (Ethanol […]): C
- Foaming property (Ethanol […]): D
- General judgment (Ethanol […]): C
- Appearance after shaking (Glycine 100 mM): B
- Appearance after standing (Glycine 100 mM): B
- Foaming property (Glycine 100 mM): B
- General judgment (Glycine 100 mM): B
- Appearance after shaking (L-Arginine 30 mM): B+
- Appearance after standing (L-Arginine 30 mM): B+
- Defoaming time (L-Arginine 30 mM): B (In 60 minutes)
- Foaming property (L-Arginine 30 mM): B
- General judgment (L-Arginine 30 mM): B+
- Appearance after shaking (L-Arginine 60 mM): A
- Appearance after standing (L-Arginine 60 mM): A
- Defoaming time (L-Arginine 60 mM): A (In 20 minutes)
- Foaming property (L-Arginine 60 mM): A
- General judgment (L-Arginine 60 mM): A
- Appearance after shaking (L-Histidine 60 mM): A
- Appearance after standing (L-Histidine 60 mM): A
- Defoaming time (L-Histidine 60 mM): A (In 20 minutes)
- Foaming property (L-Histidine 60 mM): A
- General judgment (L-Histidine 60 mM): A
- Appearance after shaking (Meglumine 25 mM): C
- Appearance after standing (Meglumine 25 mM): C
- Foaming property (Meglumine 25 mM): D
- General judgment (Meglumine 25 mM): C
- Appearance after shaking (Meglumine 50 mM): A
- Appearance after standing (Meglumine 50 mM): A
- Defoaming time (Meglumine 50 mM): B (In 60 minutes)
- Foaming property (Meglumine 50 mM): C
- General judgment (Meglumine 50 mM): B
- Appearance after shaking (Meglumine 75 mM): A
- Appearance after standing (Meglumine 75 mM): A
- Defoaming time (Meglumine 75 mM): B (In 60 minutes)
- Foaming property (Meglumine 75 mM): B
- General judgment (Meglumine 75 mM): A
- Appearance after shaking (Meglumine 100 mM): A
- Appearance after standing (Meglumine 100 mM): A
- Defoaming time (Meglumine 100 mM): A (In 20 minutes)
- Foaming property (Meglumine 100 mM): C
- General judgment (Meglumine 100 mM): A
- Appearance after shaking (Methane sulfonic acid 15 mM): D
- Appearance after standing (Methane sulfonic acid 15 mM): D
- Foaming property (Methane sulfonic acid 15 mM): B
- General judgment (Methane sulfonic acid 15 mM): D
- Appearance after shaking (Propylene glycol 1.00%): B
- Appearance after standing (Propylene glycol 1.00%): A
- Foaming property (Propylene glycol 1.00%): B
- General judgment (Propylene glycol 1.00%): B+
- Appearance after shaking (Propylene glycol 5.00%): B
- Appearance after standing (Propylene glycol 5.00%): D
- Foaming property (Propylene glycol 5.00%): D
- General judgment (Propylene glycol 5.00%): D
- Appearance after shaking (Propylene glycol 10.00%): C
- Appearance after standing (Propylene glycol 10.00%): D
- Foaming property (Propylene glycol 10.00%): D
- General judgment (Propylene glycol 10.00%): D
- Appearance after shaking (Propylene glycol […]): C
- Appearance after standing (Propylene glycol […]): D
- Foaming property (Propylene glycol […]): D
- General judgment (Propylene glycol […]): D
- Appearance after shaking (Sodium L-glutamate 30 mM): B+
- Appearance after standing (Sodium L-glutamate 30 mM): B+
- Foaming property (Sodium L-glutamate 30 mM): B+
- General judgment (Sodium L-glutamate 30 mM): B+
- Appearance after shaking (Sodium L-glutamate 60 mM): A
- Appearance after standing (Sodium L-glutamate 60 mM): A
- Defoaming time (Sodium L-glutamate 60 mM): A (In 20 minutes)
- Foaming property (Sodium L-glutamate 60 mM): B+
- General judgment (Sodium L-glutamate 60 mM): A
- Appearance after shaking (Sodium chloride 25 mM): D
- Appearance after standing (Sodium chloride 25 mM): D
- Foaming property (Sodium chloride 25 mM): B
- General judgment (Sodium chloride 25 mM): D
- Appearance after shaking (Sodium chloride 50 mM): B
- Appearance after standing (Sodium chloride 50 mM): B
- Foaming property (Sodium chloride 50 mM): A
- General judgment (Sodium chloride 50 mM): C
- Appearance after shaking (Sodium chloride 75 mM): A
- Appearance after standing (Sodium chloride 75 mM): A
- Defoaming time (Sodium chloride 75 mM): A (In 20 minutes)
- Foaming property (Sodium chloride 75 mM): B+
- General judgment (Sodium chloride 75 mM): A
- Appearance after shaking (Sodium chloride 100 mM): A
- Appearance after standing (Sodium chloride 100 mM): A
- Defoaming time (Sodium chloride 100 mM): A (In 20 minutes)
- Foaming property (Sodium chloride 100 mM): B
- General judgment (Sodium chloride 100 mM): A
Structure (SMILES): Cc1cc(OC[C@@H](O)CN2CCN(c3ccc(Cc4ccc(F)cc4)cc3)CC2)c(C)c(C)c1N [SUN N8075, (2S)-1-(4-amino-2,3,5-trimethylphenoxy)-3-{4-[4-(4-fluorobenzyl)phenyl]-1-piperazinyl}-2-propanol dimethane sulfonate]
- Appearance after shaking/Appearance after standing [1]: Large amount of insoluble matters in wall face and appearance in Control
- Defoaming time (Control: 5 mg/mL SUN N8075 aqueous solution, no test substance, standing): Not defoamed after standing for 1 week in Control
